Test results taken from PubChem BioAssay (NCI).
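Compound exposure: 48 hours, 5 concentrations, 96-well plates. GI50 is the concentration that inhibits growth by half. TGI is the concentration that stops growth completely.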

How the values were obtained:
Test in all cases: growth of human tumour cells (NCI), 48 h
KM12 colon = test system: KM12 colon
SF-539 CNS = test system: SF-539 CNS
BT-549 breast = test system: BT-549 breast
786-0 renal = test system: 786-0 renal
HCC-2998 colon = test system: HCC-2998 colon
OVCAR-4 ovarian = test system: OVCAR-4 ovarian
PC-3 prostate = test system: PC-3 prostate
T-47D breast = test system: T-47D breast
SK-OV-3 ovarian = test system: SK-OV-3 ovarian
SK-MEL-28 melanoma = test system: SK-MEL-28 melanoma
LOX IMVI melanoma = test system: LOX IMVI melanoma
RXF 393 renal = test system: RXF 393 renal
SNB-19 CNS = test system: SNB-19 CNS
IGROV1 ovarian = test system: IGROV1 ovarian
HCT-15 colon = test system: HCT-15 colon
NCI-H23 lung = test system: NCI-H23 lung
HT29 colon = test system: HT29 colon
MDA-MB-468 breast = test system: MDA-MB-468 breast
UO-31 renal = test system: UO-31 renal
MOLT-4 leukemia = test system: MOLT-4 leukemia
EKVX NSCLC = test system: EKVX NSCLC
OVCAR-3 ovarian = test system: OVCAR-3 ovarian
NCI-H522 lung = test system: NCI-H522 lung
U251 CNS = test system: U251 CNS
SW-620 colon = test system: SW-620 colon
SK-MEL-2 melanoma = test system: SK-MEL-2 melanoma
MDA-MB-435 = test system: MDA-MB-435
HCT-116 colon = test system: HCT-116 colon
CCRF-CEM leukemia = test system: CCRF-CEM leukemia
COLO 205 colon = test system: COLO 205 colon

**Q.** `CN(C(=O)c1ccc(C(C)(C)C)cc1)c1sc2c(c1C#N)CCC(=O)C2` was tested. Which TGI (KM12 colon) did it give?
**A.** Its TGI is 14.6 µM.

**Q.** And the GI50 (SF-539 CNS)?
**A.** Its GI50 is 1.77 µM.

**Q.** And the TGI (SF-539 CNS)?
**A.** The TGI was 3.42 µM.

**Q.** And the GI50 (BT-549 breast)?
**A.** The GI50 was 1.98 µM.

**Q.** What about the TGI (BT-549 breast) of the same compound?
**A.** Its TGI is 4.88 µM.

**Q.** What about the GI50 (786-0 renal) of the same compound?
**A.** The GI50 was 3.72 µM.

**Q.** What about the TGI (786-0 renal) of the same compound?
**A.** The TGI was 13.3 µM.

**Q.** And the GI50 (HCC-2998 colon)?
**A.** Its GI50 is 5.09 µM.

**Q.** And the TGI (HCC-2998 colon)?
**A.** The TGI was 16.6 µM.

**Q.** What about the GI50 (OVCAR-4 ovarian) of the same compound?
**A.** Its GI50 is 2.64 µM.

**Q.** And the TGI (OVCAR-4 ovarian)?
**A.** Its TGI is 8.45 µM.

**Q.** What about the GI50 (PC-3 prostate) of the same compound?
**A.** The GI50 was 2.72 µM.

**Q.** What about the TGI (PC-3 prostate) of the same compound?
**A.** Its TGI is 8.32 µM.

**Q.** What about the GI50 (T-47D breast) of the same compound?
**A.** Its GI50 is 1.83 µM.

**Q.** And the TGI (T-47D breast)?
**A.** Its TGI is 4.07 µM.

**Q.** What about the GI50 (SK-OV-3 ovarian) of the same compound?
**A.** Its GI50 is 17.9 µM.

**Q.** What about the TGI (SK-OV-3 ovarian) of the same compound?
**A.** Its TGI is 34.1 µM.

**Q.** And the GI50 (SK-MEL-28 melanoma)?
**A.** The GI50 was 11.2 µM.

**Q.** And the TGI (SK-MEL-28 melanoma)?
**A.** Its TGI is 23.9 µM.

**Q.** What about the GI50 (LOX IMVI melanoma) of the same compound?
**A.** The GI50 was 2.11 µM.

**Q.** What about the TGI (LOX IMVI melanoma) of the same compound?
**A.** Its TGI is 5.2 µM.

**Q.** What about the GI50 (RXF 393 renal) of the same compound?
**A.** The GI50 was 1.96 µM.

**Q.** And the TGI (RXF 393 renal)?
**A.** The TGI was 4.53 µM.

**Q.** What about the GI50 (SNB-19 CNS) of the same compound?
**A.** The GI50 was 3.7 µM.

**Q.** What about the TGI (SNB-19 CNS) of the same compound?
**A.** Its TGI is 14.7 µM.

**Q.** And the GI50 (IGROV1 ovarian)?
**A.** Its GI50 is 11.7 µM.

**Q.** And the TGI (IGROV1 ovarian)?
**A.** The TGI was 25 µM.

**Q.** And the GI50 (HCT-15 colon)?
**A.** Its GI50 is 2.04 µM.

**Q.** And the TGI (HCT-15 colon)?
**A.** Its TGI is 4.13 µM.

**Q.** And the GI50 (NCI-H23 lung)?
**A.** The GI50 was 2.42 µM.

**Q.** And the TGI (NCI-H23 lung)?
**A.** The TGI was 6.56 µM.

**Q.** What about the GI50 (HT29 colon) of the same compound?
**A.** The GI50 was 17.8 µM.

**Q.** And the TGI (HT29 colon)?
**A.** Its TGI is 41 µM.

**Q.** What about the GI50 (MDA-MB-468 breast) of the same compound?
**A.** The GI50 was 2.27 µM.

**Q.** What about the TGI (MDA-MB-468 breast) of the same compound?
**A.** Its TGI is 5.63 µM.

**Q.** What about the GI50 (UO-31 renal) of the same compound?
**A.** Its GI50 is 2.94 µM.

**Q.** And the TGI (UO-31 renal)?
**A.** The TGI was 11.2 µM.

**Q.** And the GI50 (MOLT-4 leukemia)?
**A.** The GI50 was 4.21 µM.

**Q.** And the TGI (MOLT-4 leukemia)?
**A.** Its TGI is 23.5 µM.

**Q.** And the GI50 (EKVX NSCLC)?
**A.** The GI50 was 3.49 µM.

**Q.** And the TGI (EKVX NSCLC)?
**A.** Its TGI is 14 µM.

**Q.** And the GI50 (OVCAR-3 ovarian)?
**A.** The GI50 was 2.43 µM.

**Q.** What about the TGI (OVCAR-3 ovarian) of the same compound?
**A.** Its TGI is 5.9 µM.

**Q.** What about the GI50 (NCI-H522 lung) of the same compound?
**A.** The GI50 was 1.75 µM.

**Q.** What about the TGI (NCI-H522 lung) of the same compound?
**A.** The TGI was 3.45 µM.

**Q.** And the GI50 (U251 CNS)?
**A.** Its GI50 is 1.82 µM.

**Q.** What about the TGI (U251 CNS) of the same compound?
**A.** The TGI was 3.9 µM.

**Q.** What about the GI50 (SW-620 colon) of the same compound?
**A.** The GI50 was 2.06 µM.

**Q.** And the TGI (SW-620 colon)?
**A.** Its TGI is 4.17 µM.

**Q.** And the GI50 (SK-MEL-2 melanoma)?
**A.** The GI50 was 14.5 µM.

**Q.** And the TGI (SK-MEL-2 melanoma)?
**A.** The TGI was 28.7 µM.

**Q.** And the GI50 (MDA-MB-435)?
**A.** The GI50 was 5.8 µM.

**Q.** And the TGI (MDA-MB-435)?
**A.** Its TGI is 21.1 µM.

**Q.** What about the GI50 (HCT-116 colon) of the same compound?
**A.** The GI50 was 2.08 µM.

**Q.** And the TGI (HCT-116 colon)?
**A.** Its TGI is 4.91 µM.

**Q.** What about the GI50 (CCRF-CEM leukemia) of the same compound?
**A.** Its GI50 is 3.34 µM.

**Q.** And the TGI (CCRF-CEM leukemia)?
**A.** The TGI was 10.4 µM.

**Q.** What about the GI50 (COLO 205 colon) of the same compound?
**A.** Its GI50 is 19.6 µM.

**Q.** What about the TGI (COLO 205 colon) of the same compound?
**A.** Its TGI is 37.2 µM.
